{"source": "patent US11617753B2", "about": "(priority 2016, dated 2023)", "key": {"Ebola L polymerase [1]": {"target": "T1, Ebola L polymerase (Zaire ebolavirus, UniProt Q05318)", "T1 sequence (Q05318 whole entry, looked up)": "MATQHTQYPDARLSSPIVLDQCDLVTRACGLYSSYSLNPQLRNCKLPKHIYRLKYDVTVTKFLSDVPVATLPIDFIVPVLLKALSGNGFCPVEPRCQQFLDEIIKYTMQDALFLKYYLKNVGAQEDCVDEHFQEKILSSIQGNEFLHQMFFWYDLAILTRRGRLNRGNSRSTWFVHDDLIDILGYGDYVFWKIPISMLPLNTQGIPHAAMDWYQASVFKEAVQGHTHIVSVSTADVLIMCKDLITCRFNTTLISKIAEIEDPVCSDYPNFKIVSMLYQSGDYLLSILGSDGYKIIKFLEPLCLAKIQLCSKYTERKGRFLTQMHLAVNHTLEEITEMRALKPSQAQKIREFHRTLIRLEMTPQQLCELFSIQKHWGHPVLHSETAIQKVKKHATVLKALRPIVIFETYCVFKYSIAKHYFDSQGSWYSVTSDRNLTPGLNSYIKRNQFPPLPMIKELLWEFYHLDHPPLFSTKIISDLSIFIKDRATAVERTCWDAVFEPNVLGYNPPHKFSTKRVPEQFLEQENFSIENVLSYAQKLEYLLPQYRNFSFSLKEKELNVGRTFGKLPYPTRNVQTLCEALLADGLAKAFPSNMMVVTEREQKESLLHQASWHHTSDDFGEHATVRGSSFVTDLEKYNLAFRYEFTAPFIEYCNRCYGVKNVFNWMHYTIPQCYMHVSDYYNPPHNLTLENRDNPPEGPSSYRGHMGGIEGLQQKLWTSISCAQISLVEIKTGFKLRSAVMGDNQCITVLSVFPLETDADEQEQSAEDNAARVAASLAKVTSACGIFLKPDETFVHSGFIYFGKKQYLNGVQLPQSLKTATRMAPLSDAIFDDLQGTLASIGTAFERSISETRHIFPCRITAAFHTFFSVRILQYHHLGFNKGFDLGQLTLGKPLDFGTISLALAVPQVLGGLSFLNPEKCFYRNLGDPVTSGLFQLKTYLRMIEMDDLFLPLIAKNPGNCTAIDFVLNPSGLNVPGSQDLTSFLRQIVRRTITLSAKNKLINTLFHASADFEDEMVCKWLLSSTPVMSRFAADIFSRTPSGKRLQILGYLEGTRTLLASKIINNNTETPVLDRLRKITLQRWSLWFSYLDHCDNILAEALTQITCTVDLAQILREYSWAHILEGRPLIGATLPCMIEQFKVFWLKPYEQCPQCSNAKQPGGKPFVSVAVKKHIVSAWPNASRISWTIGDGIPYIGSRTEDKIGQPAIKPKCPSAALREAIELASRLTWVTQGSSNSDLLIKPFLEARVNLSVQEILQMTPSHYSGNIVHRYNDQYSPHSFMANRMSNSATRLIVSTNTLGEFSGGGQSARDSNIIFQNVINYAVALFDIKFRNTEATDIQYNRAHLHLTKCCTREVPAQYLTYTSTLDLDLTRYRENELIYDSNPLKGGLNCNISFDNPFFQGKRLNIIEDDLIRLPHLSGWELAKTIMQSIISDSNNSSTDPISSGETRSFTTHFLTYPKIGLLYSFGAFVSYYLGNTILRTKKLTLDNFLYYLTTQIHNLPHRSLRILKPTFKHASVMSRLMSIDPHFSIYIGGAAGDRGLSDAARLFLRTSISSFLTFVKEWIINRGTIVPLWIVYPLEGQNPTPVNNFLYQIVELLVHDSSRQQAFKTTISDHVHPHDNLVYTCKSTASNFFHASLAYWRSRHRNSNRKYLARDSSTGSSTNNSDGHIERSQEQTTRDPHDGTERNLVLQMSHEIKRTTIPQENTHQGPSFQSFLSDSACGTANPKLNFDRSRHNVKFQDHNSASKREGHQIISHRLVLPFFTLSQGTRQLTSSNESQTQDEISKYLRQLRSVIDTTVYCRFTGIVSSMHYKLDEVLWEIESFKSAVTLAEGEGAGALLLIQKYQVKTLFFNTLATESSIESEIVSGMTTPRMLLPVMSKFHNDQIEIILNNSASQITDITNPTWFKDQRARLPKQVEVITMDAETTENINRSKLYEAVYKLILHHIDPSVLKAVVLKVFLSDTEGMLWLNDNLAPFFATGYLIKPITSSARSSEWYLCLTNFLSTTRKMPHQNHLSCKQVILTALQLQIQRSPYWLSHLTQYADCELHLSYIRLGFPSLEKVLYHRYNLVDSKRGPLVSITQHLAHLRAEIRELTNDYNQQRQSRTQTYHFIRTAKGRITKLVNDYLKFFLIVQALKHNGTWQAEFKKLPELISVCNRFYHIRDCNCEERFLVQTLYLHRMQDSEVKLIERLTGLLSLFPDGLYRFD", "type": "cell-based, Ebola virus", "settings": "15 μM"}, "Ebola VP40 protein [2]": {"target": "T2, Ebola VP40 protein (Zaire ebolavirus, UniProt Q05128)", "T2 sequence (Q05128 whole entry, looked up)": "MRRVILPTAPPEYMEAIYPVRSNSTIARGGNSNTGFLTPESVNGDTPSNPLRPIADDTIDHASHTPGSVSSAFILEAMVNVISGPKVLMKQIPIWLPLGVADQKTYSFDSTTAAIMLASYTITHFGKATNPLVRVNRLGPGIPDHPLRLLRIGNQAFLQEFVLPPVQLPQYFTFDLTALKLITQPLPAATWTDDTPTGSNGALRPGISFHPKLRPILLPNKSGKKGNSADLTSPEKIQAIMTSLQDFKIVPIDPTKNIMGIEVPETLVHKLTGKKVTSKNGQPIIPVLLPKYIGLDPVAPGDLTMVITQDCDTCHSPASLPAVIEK", "type": "cell-based, Ebola virus"}, "Ebola L polymerase [3]": {"target": "T1, Ebola L polymerase", "assay": "cell-based", "design": "species or system Ebola virus"}, "Ebola VP40 protein [4]": {"target": "T2, Ebola VP40 protein", "type": "cell-based, Ebola virus", "remark": "listed apart in the source"}, "EBOV-Mak": {"system": "EBOV-Mak", "assay": "microbe, parasite or virus in culture", "type": "cell-based", "settings": "Zaire ebolavirus, Huh-7, read-out: IC50, inhibition of Ebola infectivity"}, "Huh7 cells": {"system": "Huh7 cells", "settings": "human"}}, "note": "Counter-ions that a name gives are not always drawn. Like-named read-outs stand apart in the source and are kept apart here.", "data": [{"smiles": "NC(=O)c1cn([C@@H]2O[C@H](CO)[C@@H](O)[C@H]2O)c2ncnc(N)c12", "note": "[sangivamycin HCl, 4-amino-7-((2R,3R,4S,5R)-3,4-dihydroxy-5-(hydroxymethyl)tetrahydrofuran-2-yl)-7H-pyrrolo[2,3-d]pyrimidine-5-carboxamide (sangivamycin) hydrochloride]", "values": [{"measurement": "% EGFP signal", "setting": "Ebola L polymerase [1]; hydrochloride", "result": 20, "unit": "%"}, {"measurement": "% mCherry signal", "setting": "Ebola L polymerase [1]; hydrochloride", "result": 10, "unit": "%"}]}, {"smiles": "NC(=O)c1cn([C@@H]2O[C@H](CO)[C@@H](O)[C@H]2O)c2ncnc(N)c12", "note": "[sangivamycin, 4-amino-7-((2R,3R,4S,5R)-3,4-dihydroxy-5-(hydroxymethyl)tetrahydrofuran-2-yl)-7H-pyrrolo[2,3-d]pyrimidine-5-carboxamide]", "values": [{"measurement": "VLP isolated (western blot for VP40)", "setting": "Ebola VP40 protein [2]; 50 nM", "result": "clear reduction in VLP"}, {"measurement": "VLP isolated (western blot for VP40)", "setting": "Ebola VP40 protein [2]; 500 nM", "result": "drastic reduction in VLP"}, {"measurement": "IC50", "setting": "Ebola L polymerase [3]", "result": 30, "unit": "nM"}, {"measurement": "EGFP fluorescent signal, % of solvent control signal, dose-response", "setting": "Ebola VP40 protein [4]", "result": "largest decrease in signal"}, {"measurement": "concentration at which VLP formation in the cell is prevented (shift in membrane associated VP40)", "setting": "Ebola VP40 protein [4]", "result": "above 37.5 nM"}, {"measurement": "% EGFP signal", "setting": "Ebola L polymerase [1]", "result": 27, "unit": "%"}, {"measurement": "% mCherry signal", "setting": "Ebola L polymerase [1]", "result": 4, "unit": "%"}, {"measurement": "IC50", "setting": "EBOV-Mak", "result": "~100", "unit": "nM"}, {"measurement": "50% cytotoxicity concentration", "setting": "Huh7 cells", "result": "> 600", "unit": "nM"}]}]}
